Data as given in patent US12404272B2, “Process for making a PD-1/PD-L1 inhibitor and salts and crystalline forms thereof” (Incyte Corporation, priority 2020, dated 2025).
Counter-ions that a name gives are not always drawn.

Experiments:
Type in all cases: physicochemical
[1] = Static storage at elevated temperature and relative humidity, re-analysis by XRPD
Procedure: In some examples below, X-Ray Powder Diffraction analysis was carried out on a Bruker D8 X-ray Powder Diffractometer (XRPD) instrument using Cu Kα radiation (40 kV, 40 mA) and a θ-2θ goniometer fitted with a Ge monochromator. The incident beam passes through a 2.0 mm divergence slit followed by a 0.2 mm anti-scatter slit and knife edge. The diffracted beam passes through an 8.0 mm receiving slit with 2.5° Soller slits followed by the Lynxeye Detector. The software used for data collection and analysis was Diffrac Plus XRD Commander and Diffrac Plus EVA respectively. Samples were run under ambient conditions as flat plate specimens using powder as received. The sample was prepared on a polished, zero-background (510) silicon wafer by gently pressing onto the flat surface or packed into a cut cavity. The sample was rotated in its own plane. The general experimental procedures for XRPD were: (1) angular range: 2 to 42° 2θ; (2) step size: 0.05° 2θ; and collection time: 0.5 s/step (total collection time: 6.40 min). The extended data collection experimental procedures for XRPD were: (1) angular range: 3 to 30° 2θ; (2) step size: 0.05° 2θ; and collection time: 4 s/step (total collection time: 38.00 min).
In some examples below, X-Ray Powder Diffraction analysis was carried out on a PANalytical Empyrean X-ray Powder Diffractometer (XRPD) instrument using Cu Kα radiation (45 kV, 40 mA) in transmission geometry. A 0.5° slit, 4 mm mask and 0.04 rad Soller slits with a focusing mirror were used on the incident beam. A PIXcel^3D detector, placed on the diffracted beam, was fitted with a receiving slit and 0.04 rad Soller slits. The software used for data collection was X'Pert Data Collector using X'Pert Operator Interface. The data were analysed and presented using Diffrac Plus EVA or HighScore Plus. Samples were prepared and analysed in either a metal or Millipore 96 well-plate in transmission mode. X-ray transparent film was used between the metal sheets on the metal well-plate and powders (approximately 1-2 mg) were used as received. […]

[2] = Gravimetric vapour sorption (GVS)
Procedure: Gravimetric Vapour sorption (GVS) was carried out using a SMS DVS Intrinsic moisture sorption analyser, controlled by DVS Intrinsic Control software. The sample temperature was maintained at 25° C. by the instrument controls. The humidity was controlled by mixing streams of dry and wet nitrogen, with a total flow rate of 200 ml/min. The relative humidity was measured by a calibrated Rotronic probe (dynamic range of 1.0-100% RH), located near the sample. The weight change, (mass relaxation) of the sample as a function of % RH was constantly monitored by a microbalance (accuracy ±0.005 mg).
Typically, 5-30 mg of sample was placed in a tared mesh stainless steel basket under ambient conditions. The sample was loaded and unloaded at 40% RH and 25° C. (typical room conditions). A moisture sorption isotherm was performed as outlined below (2 scans per complete cycle). The standard isotherm was performed at 25° C. at 10% RH intervals over a 0-90% RH range. Typically, a double cycle (4 scans) was carried out.
The sample was recovered after completion of the isotherm and re-analysed by XRPD.

[3] = Maturation in solvents (20 vol), dissolution observed; conditions: matured RT-50° C. for 3 days
Procedure: The methanesulfonic acid salt (20 mg) was treated with solvent (20 vol) and matured (RT −50° C., 4 h) for 3 days. Samples were then analyzed by XRPD. Attempts in improve the crystallinity of the scaled up methanesulfonic acid salt was undertaken by subjecting the material to maturation for 72 h in a variety of solvents. A slight improvement in crystallinity was observed from maturing in 2-propanol, ethyl acetate, and tert-butyl methyl ether.

Cc1c(Nc2nc(C(F)F)nc3cc(CN4CC[C@@H](O)C4)cnc23)cccc1-c1cccc(-c2nc3cc(CN4CCC(C(=O)O)CC4)cc(C#N)c3o2)c1C [(R)-1-((7-cyano-2-(3′-((2-(difluoromethyl)-7-((3-hydroxypyrrolidin-1-yl)methyl)pyrido[3,2-d]pyrimidin-4-yl)amino)-2,2′-dimethyl-[1,1′-biphenyl]-3-yl)benzo[d]oxazol-5-yl)methyl)piperidine-4-carboxylic acid]
XRPD analysis following static storage ([1]; 25° C./97% RH for 5 days): remained unchanged, however a loss in crystallinity was observed | XRPD analysis following static storage ([1]; 40° C./75% RH for 5 days): remained unchanged, however a loss in crystallinity was observed | hygroscopicity ([2]; GVS, 0-90% RH): very hygroscopic | XRPD analysis following the GVS experiment ([2]; after GVS isotherm): remained unchanged | weight uptake ([2]; between 0-90% RH, 25° C.): 19.5 % w/w

Cc1c(Nc2nc(C(F)F)nc3cc(CN4CC[C@@H](O)C4)cnc23)cccc1-c1cccc(-c2nc3cc(CN4CCC(C(=O)O)CC4)cc(C#N)c3o2)c1C [Free form Form I, (R)-1-((7-cyano-2-(3′-((2-(difluoromethyl)-7-((3-hydroxypyrrolidin-1-yl)methyl)pyrido[3,2-d]pyrimidin-4-yl)amino)-2,2′-dimethyl-[1,1′-biphenyl]-3-yl)benzo[d]oxazol-5-yl)methyl)piperidine-4-carboxylic acid]
XRPD following static storage ([1]; 7 days at elevated temperature and relative humidity conditions): remained unchanged

Cc1c(Nc2nc(C(F)F)nc3cc(CN4CC[C@@H](O)C4)cnc23)cccc1-c1cccc(-c2nc3cc(CN4CCC(C(=O)O)CC4)cc(C#N)c3o2)c1C [methanesulfonic acid salt, (R)-1-((7-cyano-2-(3′-((2-(difluoromethyl)-7-((3-hydroxypyrrolidin-1-yl)methyl)pyrido[3,2-d]pyrimidin-4-yl)amino)-2,2′-dimethyl-[1,1′-biphenyl]-3-yl)benzo[d]oxazol-5-yl)methyl)piperidine-4-carboxylic acid]
dissolution in solvent ([3]; ethanol): complete dissolution | dissolution in solvent ([3]; water): complete dissolution
